Source: patent publication US4416899A, “Antibiotic BMG162-aF2, a process for production thereof, and antitumor drug containing said new antibiotic as active ingredient” (priority 1980, dated 1983)
Converted amounts (≈) assume the structure as drawn. “Also recorded” adds a separate entry of the source. Where a name gives a salt, the structure may show the parent alone.

Key:
[1] = Stability / hydroscopicity; format: physicochemical; conditions: hydrochloride salt
[2] = Acute toxicity, intravenous; conditions: mouse, in vivo
[3] = Solubility; format: physicochemical
[4] = test system: Aeromonas punctata IAM1646; assay: Antibacterial activity, agar dilution method (Table 2-2); conditions: Aeromonas caviae, IAM1646, read-out: Minimum inhibitory concentration
[5] = test system: mouse Sarcoma 180; assay: Effect on Sarcoma 180; conditions: for rate of elongation of survival period: once a day for 9 days, ICR mice, control 13.8 days
[6] = test system: Bacillus subtilis NRRL B-558; assay: Antibacterial activity, agar dilution method (Table 2-1); format: cell-based; conditions: NRRLB558, nutrient agar, 37° C., hydrochloride, read-out: Minimum inhibitory concentration
[7] = test system: Sarcina lutea PCI1001; assay: as above; format: cell-based; conditions: Micrococcus luteus, nutrient agar, 37° C., hydrochloride, read-out: Minimum inhibitory concentration
[8] = test system: Gram-positive and Gram-negative bacteria; assay: Antibacterial activity, agar dilution method (summary in words); format: cell-based; conditions: as the hydrochloride salt
[9] = test system: Saccharomyces cerrevisiae; assay: Antibacterial activity, agar dilution method (Table 2-3); format: cell-based; conditions: nutrient agar + 1% glucose, 27° C., hydrochloride, read-out: Minimum inhibitory concentration
[10] = test system: Candida Yu-1200; assay: as above; format: cell-based; conditions: YU1200, nutrient agar + 1% glucose, 27° C., hydrochloride, read-out: Minimum inhibitory concentration
[11] = test system: mouse Ehrlich ascites tumor; assay: Effect on mouse Ehrlich ascites tumor; conditions: for rate of elongation of survival period: once a day for 9 days, ICR mice, control 13.8 days
[12] = test system: Aeromonas sp. (KT-444); assay: Antibacterial activity, agar dilution method (Table 2-2); conditions: read-out: Minimum inhibitory concentration
[13] = test system: Shigella flexneri 4bJS11811; assay: Antibacterial activity, agar dilution method (Table 2-1); format: cell-based; conditions: nutrient agar, 37° C., hydrochloride, read-out: Minimum inhibitory concentration
Source text: (§1) | Medium used: nutrient agar

[14] = test system: Shigella sonnei JS11746; assay: as above; format: cell-based; conditions: nutrient agar, 37° C., hydrochloride, read-out: Minimum inhibitory concentration
Source text: as §1

[15] = test system: Aeromonas salmonecida ATCC 14174; assay: Antibacterial activity, agar dilution method (Table 2-2); conditions: ATCC14174, read-out: Minimum inhibitory concentration
[16] = test system: Trichophyton mentagrophytes; assay: Antibacterial activity, agar dilution method (Table 2-3); format: cell-based; conditions: nutrient agar + 1% glucose, 27° C., hydrochloride, read-out: Minimum inhibitory concentration
[17] = test system: Salmonella typhi T-63; assay: Antibacterial activity, agar dilution method (Table 2-1); format: cell-based; conditions: Salmonella enterica, read-out: Minimum inhibitory concentration
[18] = test system: Pseudomonas lachrymans; assay: Antibacterial activity, agar dilution method (Table 2-2); conditions: read-out: Minimum inhibitory concentration
[19] = test system: Candida krusei NI7492; assay: Antibacterial activity, agar dilution method (Table 2-3); format: cell-based; conditions: Pichia kudriavzevii, nutrient agar + 1% glucose, 27° C., hydrochloride, read-out: Minimum inhibitory concentration
[20] = test system: mouse leukemia EL-4; assay: Effect on mouse leukemia EL-4; format: in vivo; conditions: for rate of elongation of survival period: once a day for 9 days, C57 BL/6 mice, control 11.0 days

## N=C(N)NCCCCC(O)CC(=O)NC(O)C(=O)NCCCCNCCCN (stereo not shown) [BMG162-aF2 hydrochloride]
[1]
  hydroscopicity: so hydroscopic that it forms a hydrate
[2]
  LD50: > 80 mg/kg
[3]; benzene
  solubility: only slightly soluble or insoluble
[3]; chloroform
  solubility: only slightly soluble or insoluble
[3]; ethanol
  solubility: only slightly soluble or insoluble
[3]; ethyl acetate
  solubility: only slightly soluble or insoluble
[3]; methanol
  solubility: easily soluble
[3]; water
  solubility: easily soluble

## N=C(N)NCCCCC(O)CC(=O)NC(O)C(=O)NCCCCNCCCN (stereo not shown) [BMG162-aF2]
[4]
  MIC: > 100 µg/mL
[5]; 1.56 mg/kg/day ip
  rate of elongation of survival period: 220
[5]; 3.13 mg/kg/day ip
  rate of elongation of survival period: 243
[5]; 6.25 mg/kg/day ip
  rate of elongation of survival period: 181
[5]; 12.5 mg/kg/day ip
  rate of elongation of survival period: > 279
[5]; 50 mg/kg/day ip
  rate of elongation of survival period: 53
[5]; 50, 12.5 and 6.25 mg/kg/day ip (footnote *)
  Toxic sign: Toxic sign appeared
[5]; hydrochloride, ip
  effect on Sarcoma 180: remarkable effects of cure and elongation of survival period; also recorded: showed an effect against a transplanted tumor
[6]
  MIC: 100 µg/mL (≈ 248 µM)
[7]
  MIC: 100 µg/mL (≈ 248 µM)
[8]
  inhibitory activity against Gram-positive and Gram-negative bacteria: only weak inhibitory activity; also recorded: weakly inhibits Gram positive and negative bacteria
[9]
  MIC: > 100 µg/mL
[10]
  MIC: > 100 µg/mL
[11]; 1.56 mg/kg/day ip
  rate of elongation of survival period: 133
[11]; 3.13 mg/kg/day ip
  rate of elongation of survival period: 188
[11]; 6.25 mg/kg/day ip
  rate of elongation of survival period: 236
[11]; 12.5 mg/kg/day ip
  rate of elongation of survival period: 170
[11]; 25 mg/kg/day ip
  rate of elongation of survival period: 72
[11]; 50 mg/kg/day ip
  rate of elongation of survival period: 54
[11]; 50, 25 and 12.5 mg/kg/day ip (footnote *)
  Toxic sign: Toxic sign appeared
[11]; hydrochloride, ip
  effect on Ehrlich ascites tumor: remarkable effects of cure and elongation of survival period; also recorded: showed an effect against a transplanted tumor
[12]
  MIC: > 100 µg/mL
[13]
  MIC: > 100 µg/mL
[14]
  MIC: > 100 µg/mL
[15]
  MIC: > 100 µg/mL
[16]
  MIC: > 100 µg/mL
[17]
  MIC: > 100 µg/mL
[18]
  MIC: 50 µg/mL (≈ 124 µM)
[19]
  MIC: > 100 µg/mL
[20]; 0.313 mg/kg/day ip
  rate of elongation of survival period: 131
[20]; 0.625 mg/kg/day ip
  rate of elongation of survival period: 130
[20]; 1.25 mg/kg/day ip
  rate of elongation of survival period: 159
[20]; 2.5 mg/kg/day ip
  rate of elongation of survival period: 164
[20]; 5 mg/kg/day ip
  rate of elongation of survival period: 193
[20]; hydrochloride, ip
  effect on mouse leukemia EL-4: remarkable effects of cure and elongation of survival period
